Laboratory results: US9567301B2, “Pyrrol-1-yl benzoic acid derivatives useful as myc inhibitors” (Whitehead Institute for Biomedical Research, priority 2012, dated 2017)
Where two headings read alike, the source gives them in different places.

How the values were obtained:
c-Myc/Max/Ebox DNA = c-Myc/Max/Ebox DNA (Homo sapiens, UniProt P01106); test: c-Myc/Max/Ebox DNA AlphaScreen assay; format: binding; parameters: An exemplary assay uses full-length human c-Myc and Max proteins; his6 (cleaved yes); made in house
Sequence of c-Myc/Max/Ebox DNA (P01106 16-454): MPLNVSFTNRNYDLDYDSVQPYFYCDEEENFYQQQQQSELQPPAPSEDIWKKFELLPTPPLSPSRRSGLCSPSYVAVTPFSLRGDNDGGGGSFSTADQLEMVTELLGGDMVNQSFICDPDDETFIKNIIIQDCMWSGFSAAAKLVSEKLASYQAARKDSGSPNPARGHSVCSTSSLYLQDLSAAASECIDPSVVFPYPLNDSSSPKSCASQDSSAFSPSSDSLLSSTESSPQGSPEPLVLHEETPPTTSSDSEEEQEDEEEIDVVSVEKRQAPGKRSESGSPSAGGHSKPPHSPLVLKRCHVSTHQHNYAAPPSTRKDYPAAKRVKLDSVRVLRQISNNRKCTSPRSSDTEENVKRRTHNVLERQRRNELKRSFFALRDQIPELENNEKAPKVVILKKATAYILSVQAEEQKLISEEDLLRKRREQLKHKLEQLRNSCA
Experimental: This protocol was used to generate the biochemical data in Table 2 and FIG. 11. The primary AlphaScreen assay is amenable to 384-well and 1536-well plate formats for HTS. Human his6-c-Myc and his6-Max were used with biotinylated DNA containing a single Ebox sequence (biotin[…]) purchased from MWG Operon. Free c-Myc was generated from his6-c-Myc through thrombin cleavage of the his6 tag. For 384-well plate assays, 10 μL of a 2× solution of free c-Myc (25 nM final), Ni++-coated Acceptor Bead (25 μg/ml final), and biotinylated Ebox oligo (10 nM final) were added to 384-well plates with a Biotek EL406 liquid handler. 100 nL of compounds from stock plates were added by pin transfer using a Janus Workstation (PerkinElmer), allowing the compounds to interact with c-Myc prior to c-Myc binding with Max. In the current assay, DMSO was not allowed to exceed 2% v/v of the assay. 10 μl of 2× master mix containing streptavidin-coated donor beads (25 μg/ml final) and his6-Max (1.25 nM final) were added. AlphaScreen measurements were performed on an Envision 2104 (PerkinElmer) utilizing the manufacturer's protocol. The assay can also be performed in 1536-plate format with 8 μL total volume using two 4 μL additions (instead of […] and 10 μL respectively).
Assays are performed with minor modifications from the manufacturer's protocol (PerkinElmer). Both master mixes were made in room temperature assay buffer (50 mM HEPES, 150 mM NaCl, 0.2% w/v BSA, 0.02% w/v Tween20, 40 μg/ml glycogen, 500 μM DTT, pH 8.0, DTT and glycogen added fresh). Alpha beads were added to respective master solutions and wrapped in foil. All subsequent steps were performed in low light conditions. Solution 1: 2× solution of components with final concentrations of cMyc (25 nM), Ni-coated Acceptor Bead (25 μg/ml), and biotinylated Ebox oligo (10 nM). Solution 2: 2× solution of streptavidin-coated donor beads (25 μg/ml final) and his6-Max (1.25 nM final). […] Solution 1 were added to 384-well plate (AlphaPlate-384, PerkinElmer) with Biotek EL406 liquid handler and the plates were centrifuged at 1000 rpm for 1 minute. 100 nL of compounds from stock plates were added by pin transfer using a Janus Workstation. 10 μL Solution 2 were added with the liquid handler. Plates were sealed with foil to block light exposure and prevent evaporation. Plates were centrifuged at 1000 rpm for 1 minute followed by 2 hour incubation. AlphaScreen measurements were performed on an Envision 2104 utilizing the manufacturer's protocol. Excitation was at 680 nm for donor bead release of singlet oxygen and emission was read with a bandpass filter from 520-620 nm. Glycogen: Roche Diagnostics #10901393001. Plate 1536: Perkin Elmer, 6004350. Plate 384: Perkin Elmer, 6005350. Nickel-His Alpha Beads: 6760619R.

Jurkat cells = test: Cell viability assay (ATPlite), Jurkat; format: cell-based, human; settings: class symbols, NA: not active under assay conditions
Experimental: (§1) This assay was used for the H2171 and MM1S cell data shown in Table 2, and for the Jurkat (an immortalized line of human T lymphocyte cells), Ly1 (OCI-Ly1 human non-Hodgkin lymphoma cell line), Ly4 (OCI-Ly4 human non-Hodgkin lymphoma cell line), H2172 (NCI-H2172 human non-small cell lung cancer cell line), and CA-46 (a human Burkitt's lymphoma cell line) cell data shown in Table 3 and FIG. 12. Cells were counted and adjusted to 60,000 cells/mL. Using a Biotek EL406, 50 μL of cells are media were distributed into 384 well white plates from Thermo. Immediately after plating, compound in DMSO was distributed to plates. For large plate sets, cells were returned to 37° C. incubator while not in use.
(§2) Compounds were added to plates using a 100 nL 384 well pin transfer manifold on a Janus workstation. Stocks were arrayed in 10 point quadruplicate dose response in DMSO stock in 384 well Greiner compound plates. After addition of compound, plates were incubated for three days in a 37° C. incubator.
(§3) Cell viability was read out using ATPlite from Perkin Elmer. Plates were removed from the incubator and brought to room temperature prior to use. Lyophilized powder was resuspended in lysis buffer and diluted 1:2 with DI water. 25 μL of this solution was added to each well using the Biotek liquid handler. Plates were sealed with adherent aluminum seals prior to vortexing and spinning down at 1000 g for 1 minute. Plates were incubated for 15 minutes at room temperature before signal was read on an Envision Plate Reader.

MM1S cells = test: Cell viability assay (ATPlite), MM1S; format: cell-based, human; settings: cell viability, three days, ATPlite, NA: inactive under assay conditions
Experimental: as §1, §2, §3

H2171 cells = test: Cell viability assay (ATPlite), H2171; format: cell-based, human; settings: cell viability, three days, ATPlite, NA: inactive under assay conditions
Experimental: as §1, §2, §3

[1] = class symbols, NA: not active under assay conditions, read-out: Myc/Max IC50
[2] = c-Myc/Max/Ebox DNA AlphaScreen, NA: inactive under assay conditions, read-out: Biochemical IC50

| SMILES | IC50 (c-Myc/Max/Ebox DNA; [1]) [µM] | EC50 (Jurkat cells; Homo sapiens, Jurkat) [µM] | IC50 (c-Myc/Max/Ebox DNA; [2]) [µM] | EC50 (MM1S cells; Homo sapiens, MM1.S, 72 h) [µM] | EC50 (H2171 cells; Homo sapiens, NCI-H2171, 72 h) [µM] | also measured |
| --- | --- | --- | --- | --- | --- | --- |
| Cc1ccc(C)n1-c1cc(C(=O)N2CCN(c3ccccc3C(=O)O)CC2)ccc1C(=O)O [Compound 198] | 1 to 10 | ≥ 100 |  |  |  |  |
| Cc1ccc(C)n1-c1cc(C(=O)N2CCCC(c3ccc(C(=O)NS(C)(=O)=O)cc3)C2)ccc1C(=O)NS(C)(=O)=O (stereo not shown) [Compound 186] | ≥ 100 | ≥ 100 |  |  |  |  |
| COC(=O)c1ccc(C(=O)NNC(=O)OC(C)(C)C)cc1-n1c(C)ccc1C [Compound 184] | ≥ 100 | ≥ 100 |  |  |  |  |
| Cc1ccc(C)n1-c1cc(Br)ccc1C(=O)NS(C)(=O)=O [Compound 214] | ≥ 100 | 10 to 100 |  |  |  |  |
| COc1ccccc1C(=O)N1CCN(C(=O)c2ccc(C(=O)O)c(-n3c(C)ccc3C)c2)CC1 [Compound 213] | ≥ 100 | ≥ 100 |  |  |  |  |
| Cc1ccc(C)n1-c1ccc(C(=O)O)c(O)c1 [Compound 65] |  |  | 61.9 |  |  | EC50 (MM1S cells): 1440 µM; EC50 (H2171 cells): 189 µM |
| Cc1cccc(C2CCCN(C(=O)c3ccc(C(=O)O)c(-n4c(C)ccc4C)c3)C2)c1 (stereo not shown) [Compound 212] | 10 to 100 | 10 to 100 |  |  |  |  |
| Cc1ccc(C)n1-c1cc(C(=O)N2CCCC(c3ccccc3)C2)ccc1C(=O)O (stereo not shown) [Compound 188] | 10 to 100 | ≥ 100 |  |  |  |  |
| Cc1ccc(C)n1-c1cc(C(=O)N2CCN(c3cccnc3)CC2)ccc1C(=O)O [Compound 194] | ≥ 100 | 10 to 100 |  |  |  |  |
| Cc1ccc(C)n1-c1cc(-c2nnc(-c3cccc(C(=O)NS(C)(=O)=O)c3)o2)ccc1C(=O)O [Compound 222] | 10 to 100 | 10 to 100 |  |  |  |  |
| Cc1ccc(C)n1-c1cccnc1C(=O)O [Compound 181] | 1 to 10 | ≥ 100 |  |  |  |  |
| Cc1ccc(C)n1-c1cc(C(=O)O)ccc1C(=O)NS(C)(=O)=O [Compound 223] | 10 to 100 | ≥ 100 |  |  |  |  |
| Cc1ccc(C)n1-c1cc(C(=O)N/N=C/c2ccc(F)c(F)c2)ccc1C(=O)O [Compound 99] |  |  | 4.82 | 492 | 106 |  |
| Cc1ccc(C)n1-c1cc(-c2nnc(-c3cccc(C(=O)O)c3)o2)ccc1C(=O)O [Compound 167] | 10 to 100 | 10 to 100 |  |  |  |  |
| Cc1ccc(C)n1-c1cc(C(=O)NN)ccc1C(=O)O [Compound 70] |  |  | 6.98 | 1240 |  | EC50 (H2171 cells): 43.7 µM |
| CC(=O)OCOC(=O)c1ccccc1-n1c(C)ccc1C [Compound 149] |  |  | 101 |  |  | EC50 (MM1S cells): 71.4 µM; EC50 (H2171 cells): 20.7 µM |
| CC(=O)OCOC(=O)c1ccc(-n2c(C)ccc2C)cc1O [Compound 143] |  |  | 91.4 |  |  | EC50 (MM1S cells): 161 µM; EC50 (H2171 cells): 66.1 µM |
| CCOC(=O)c1ccc(-n2c(C)ccc2-c2ccccc2)cc1 [Compound 13] |  |  | 144 | 69.9 | 54.4 |  |
| Cc1cccc(Nc2ccccc2C(=O)O)c1C [Compound 153] |  |  | 403 | 185 | 93.5 |  |

Second part, led by results:

| IC50 (c-Myc/Max/Ebox DNA; [1]) [µM] | EC50 (Jurkat cells; Homo sapiens, Jurkat) [µM] | IC50 (c-Myc/Max/Ebox DNA; [2]) [µM] | EC50 (MM1S cells; Homo sapiens, MM1.S, 72 h) [µM] | EC50 (H2171 cells; Homo sapiens, NCI-H2171, 72 h) [µM] | SMILES | also measured |
| --- | --- | --- | --- | --- | --- | --- |
| 10 to 100 |  |  |  |  | Cc1ccc(C)n1-c1cc(C(=O)N2CCCC(c3ccc(C(=O)O)cc3)C2)ccc1C(=O)O (stereo not shown) [Compound 210] | EC50 (Jurkat cells): ≥ 100 µM |
| 10 to 100 | ≥ 100 |  |  |  | Cc1ccccc1N1CCN(C(=O)c2ccc(C(=O)O)c(-n3c(C)ccc3C)c2)CC1 [Compound 179] |  |
| 10 to 100 | 10 to 100 |  |  |  | Cc1ccc(C)n1-c1cc(C(=O)N2CCC=C(c3ccc(C(=O)O)cc3)C2)ccc1C(=O)O [Compound 202] |  |
| 1 to 10 | ≥ 100 |  |  |  | Cc1ccc(C)n1-c1cc(C(=O)N2CCCC(c3ccc(C(=O)O)cc3)C2)ccc1C(=O)O (stereo not shown) [Compound 164] |  |
|  |  | 13.5 | 161 | 83.8 | COc1cc(C(=O)O)c(-n2c(C)ccc2C)cc1OC [Compound 145] |  |
| 1 to 10 | ≥ 100 |  |  |  | Cc1ccc(C)n1-c1ncccc1C(=O)O [Compound 134] |  |
|  |  | 96.4 | 329 | 564 | Cc1c(C)c(C)n(-c2ccc(C(=O)O)c(O)c2)c1C [Compound 139] |  |
|  |  | 81.6 | 58 | 64.9 | CCOC(=O)c1ccc(-n2c(CCC(=O)O)ccc2-c2ccc(Br)cc2)cc1O [Compound 23] |  |
|  |  | 206 | 238 | 70.3 | CC(=O)OCOC(=O)c1ccc(Cl)cc1-n1c(C)ccc1C [Compound 158] |  |
|  |  | 116 | 83.2 | 166 | CCOC(=O)c1ccc(-n2c(CCC(=O)O)ccc2-c2ccc(OC)cc2)cc1O [Compound 24] |  |
|  |  | 252 | 243 | 303 | Cc1ccc(C)n1-c1ccccc1S(=O)(=O)O [Compound 128] |  |
|  |  | 941 | 1690 | 268 | Cc1ccc(-c2ccc(-n3c(C)ccc3C)c(C(=O)O)c2)cc1 [Compound 148] |  |
|  |  | 442 | 11.5 | 6.27 | Cc1nccn1-c1ccccc1C(=O)O [Compound 26] |  |
|  |  | 124 | 71.7 | 73.4 | CCOC(=O)c1ccc(-n2c(CCC(=O)O)ccc2-c2cccs2)cc1O [Compound 22] |  |
|  |  | 51.5 | 300 | 224 | Cc1cc(Br)c(-n2c(C)ccc2C)c(C(=O)O)c1 [Compound 130] |  |
|  |  | 150 | 99.1 | 28 | CC(=O)OCOC(=O)c1ccccc1-n1cccc1 [Compound 150] |  |
|  |  | 94.6 | 211 | 104 | COc1cc(C(=O)OCOC(C)=O)c(-n2c(C)ccc2C)cc1OC [Compound 160] |  |
|  |  | 61.8 | 79.3 | 123 | Cc1ccc(-c2ccccc2)n1-c1ccc(O)c(C(=O)O)c1 [Compound 12] |  |
|  |  | 139 | 78.3 | 101 | CCOC(=O)c1ccc(-n2c(CCC(=O)O)ccc2-c2ccccc2)cc1O [Compound 25] |  |
|  |  | 38 | 92.4 | 198 | Cc1ccc(C)n1-c1cc(C(=O)N/N=C/c2ccc3c(c2)OCCN3C)ccc1C(=O)O [Compound 89] |  |
|  |  | 3.84 | 5170 | 24100 | Cc1ccc(C)n1-c1cc(C(=O)N/N=C/c2cc(C(F)(F)F)cc(C(F)(F)F)c2)ccc1C(=O)O [Compound 98] |  |
|  |  | 31 | 264 | 151 | Cc1ccc(C)n1-c1cc2ccccc2cc1C(=O)O [Compound 129] |  |
|  |  | 96 | 75.3 | 89.1 | CCCOC(=O)c1ccc(-n2c(CCC(=O)O)ccc2-c2ccccc2)cc1O [Compound 21] |  |
|  |  | 104 | 27600 | 120 | Cc1ccc(C)n1-c1cc(C(=O)NCCN2CCN(C)CC2)ccc1C(=O)O [Compound 74] |  |
